{"source": "patent US20230051589A1", "about": "“COMPOUNDS AND COMPOSITIONS FOR TREATING CONDITIONS ASSOCIATED WITH NLRP ACTIVITY” (Novartis AG, priority 2018, published 2023)", "data": [{"tested_on": "IL-1β production in PMA-differentiated THP-1 cells", "test": "IL-1β production in PMA-differentiated THP-1 cells stimulated with gramicidin (hTHP-1 assay, 2% fetal bovine serum; Procedures 1-3)", "assay_type": "cell-based, human", "settings": "Homo sapiens, THP-1, Table B1; hTHP-1 assay containing 2% fetal bovine serum, gramicidin stimulation, IL-1β readout; read-out: hTHP-1 IC50 (average)", "method_in_brief": "(§1)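 IL-1β released into supernatants was read by HTRF after 2 h gramicidin (5 μM) challenge. Before challenge, compounds (3-fold dilutions, top 100 μM, 0.37% DMSO) were given 1 h on THP-1 cells differentiated with PMA (20 ng/ml, 16-18 h) and held in 2% FBS medium.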", "units": {"IC50": "µM"}, "values": [{"compound": "CC1CCc2c1cc1c(c2NC(=O)N=[S@@](N)(=O)c2cnc(C(C)(C)O)s2)CCC1", "note": "(single isomer, unassigned) [Example 323, (R, R) or (R, S)-2-(2-hydroxypropan-2-yl)-N′-((1-methyl-1,2,3,5,6,7-hexahydro-s-indacen-4-yl)carbamoyl)thiazole-5-sulfonimidamide]", "IC50": "0.04 to 0.2"}, {"compound": "CNCc1cc(F)c(S(N)(=O)=NC(=O)Nc2c3c(cc4c2CCC4)CCC3)s1", "note": "(stereo not drawn) [Compound 412]", "IC50": "0.04 to 0.2"}]}, {"tested_on": "IL-1β production in PMA-differentiated THP-1 cells", "test": "IL-1β production in PMA-differentiated THP-1 cells stimulated with gramicidin (hTHP-1 assay, 2% fetal bovine serum; Procedures 1-3)", "assay_type": "cell-based, human", "settings": "Homo sapiens, THP-1, Table B3; hTHP-1 assay containing 2% fetal bovine serum, gramicidin stimulation, IL-1β readout; read-out: hTHP-1 IC50", "method_in_brief": "as §1", "units": {"IC50": "µM"}, "values": [{"compound": "CN1CCCC(c2ccc(S(N)(=O)=NC(=O)Nc3c4c(cc5c3CC5)CCC4)c(F)c2)C1", "note": "(single isomer, unassigned) [Example 862, (R, R) or (S, R)-2-fluoro-4-(1-methylpiperidin-3-yl)-N′-((2,4,5,6-tetrahydro-1H-cyclobuta[f]inden-3-yl)carbamoyl)benzenesulfonimidamide]", "IC50": "1 to 5"}]}, {"tested_on": "IL-1β production in PMA-differentiated THP-1 cells", "test": "IL-1β production in PMA-differentiated THP-1 cells stimulated with gramicidin (hTHP-1 assay, 2% fetal bovine serum; Procedures 1-3)", "assay_type": "cell-based, human", "settings": "Homo sapiens, THP-1, hTHP-1 assay containing 2% fetal bovine serum, Table B2, class symbols; read-out: IC50", "method_in_brief": "as §1", "units": {"IC50": "µM"}, "values": [{"compound": "CC(C)c1cc2c(cc1NC(=O)N=S(N)(=O)c1cnc(C(C)(C)O)s1)CCC2", "note": "(stereo not drawn) [Example 494, 2-(2-Hydroxypropan-2-yl)-N′-((6-isopropyl-2,3-dihydro-1H-inden-5-yl)earbamoyl)thiazole-5-sulfonimidamide]", "IC50": "0.2 to 1"}, {"compound": "CC(C)n1nc([S@@](N)(=O)=NC(=O)Nc2c3c(cc4c2C(=O)CC4)CCC3)cc1C(C)(C)O", "note": "[Compound 908b]", "IC50": "0.2 to 1"}, {"compound": "NS(=O)(=NC(=O)Nc1c2c(cc3c1CC3)CCC2)c1ccc(CN2CCC2)cc1F", "note": "(stereo not drawn) [Example 463, 4-(azetidin-1-ylmethyl)-2-fluoro-N′-((2,4,5,6-tetrahydro-1H-cyclobuta[f]inden-3-yl)carbamoyl)benzenesulfonimidamide]", "IC50": "1 to 5"}, {"compound": "CNCC1(c2ccc(S(N)(=O)=NC(=O)Nc3c4c(cc5c3CCC5)CCC4)c(F)c2)CC1", "note": "(stereo not drawn) [Example 495, 2-Fluoro-N′-((1,2,3,5,6,7-hexahydro-s-indacen-4-yl)carbamoyl)-4-(1-((methylamino)methyl)cyclopropyl)benzenesulfonimidamide]", "IC50": "1 to 5"}, {"compound": "C[C@@](O)(COCCOCc1ccccc1)c1ncc(S(N)(=O)=NC(=O)Nc2c3c(cc4c2CCC4)CCC3)s1", "note": "(stereo partly drawn) [Example 683, 2-((R)-1-(2-(benzyloxy)ethoxy)-2-hydroxypropan-2-yl)-N′-((1,2,3,5,6,7-hexahydro-s-indacen-4-yl)carbamoyl)thiazole-5-sulfonimidamide]", "IC50": "0.2 to 1"}, {"compound": "CC(C)N(C)c1ccc(S(N)(=O)=NC(=O)Nc2c3c(cc4c2CCC4)CCC3)cc1", "note": "(stereo not drawn) [Example 489, N′-((1,2,3,5,6,7-hexahydro-s-indacen-4-yl)carbamoyl)-4-(isopropyl(methyl)ammo) benzenesulfonimidamide]", "IC50": "5 to 30"}, {"compound": "CCCc1c2c(c(NC(=O)N=S(N)(=O)c3cc(C(C)(C)O)n(-c4ccccc4)n3)c3c1CCC3)CCC2", "note": "(stereo not drawn) [Example 513, 5-(2-hydroxypropan-2-yl)-1-phenyl-N′-((8-propyl-1,2,3,5,6,7-hexahydro-s-indacen-4-yl)carbamoyl)-1H-pyrazole-3-sulfonimidamide]", "IC50": "5 to 30"}, {"compound": "CN(C)Cc1ccc(S(N)(=O)=NC(=O)Nc2c3c(cc4c2CCC4)CCC3)s1", "note": "(stereo not drawn) [Compound 889]", "IC50": "1 to 5"}, {"compound": "C[C@@](O)(CO)c1ncc([S@@](N)(=O)=NC(=O)Nc2c3c(cc4c2CC4)CCC3)s1", "note": "[Compound 919b]", "IC50": "0.008 to 0.04"}, {"compound": "NS(=O)(=NC(=O)Nc1c2c(cc3c1CCC3)CCC2)c1cccc(CN2CCOCC2)c1", "note": "(stereo not drawn) [Example 503, N′-((1,2,3,5,6,7-hexahydro-s-indacen-4-yl)carbamoyl)-3-(morpholinomethyl)benzenesulfonimidamide]", "IC50": "1 to 5"}]}, {"tested_on": "IL-1β production in PMA-differentiated THP-1 cells", "test": "IL-1β production in PMA-differentiated THP-1 cells stimulated with gramicidin (hTHP-1 assay, 2% fetal bovine serum; Procedures 1-3)", "assay_type": "cell-based, human", "settings": "Homo sapiens, THP-1, hTHP-1 assay containing 2% fetal bovine serum, Table B2, given as bound; read-out: IC50", "method_in_brief": "as §1", "units": {"IC50": "µM"}, "values": [{"compound": "NS(=O)(=NC(=O)Nc1c2c(cc3c1CCC3)CCC2)c1cccc(CN2CCOCC2)c1", "note": "(single isomer, unassigned) [Example 551, (S) or (R)-N′-((1,2,3,5,6,7-hexahydro-s-indacen-4-yl)carbamoyl)-3-(morpholinomethyl) benzenesulfonimidamide]", "IC50": "> 30"}, {"compound": "C[C@H](N[S@](=O)(=NC(=O)Nc1c2c(cc3c1CCC3)CCC2)c1cnc(C(C)(C)O)s1)c1ccccc1", "note": "[Compound 887b]", "IC50": "> 30"}, {"compound": "CN1CCc2ccc(S(N)(=O)=NC(=O)Nc3c4c(cc5c3CCC5)CCC4)cc2C1", "note": "(single isomer, unassigned) [Example 584, (S) or (R)-N′-((1,2,3,5,6,7-hexahydro-s-indacen-4-yl)carbamoyl)-2-methyl-1,2,3,4-tetrahydroisoquinoline-7-sulfonimidamide]", "IC50": "> 30"}]}, {"tested_on": "IL-1β production in PMA-differentiated THP-1 cells", "test": "IL-1β production in PMA-differentiated THP-1 cells stimulated with gramicidin (hTHP-1 assay, 2% fetal bovine serum; Procedures 1-3)", "assay_type": "cell-based, human", "settings": "Table B1; hTHP-1 assay containing 2% fetal bovine serum, gramicidin stimulation, IL-1β readout; read-out: hTHP-1 IC50 (average)", "method_in_brief": "as §1", "units": {"IC50": "µM"}, "values": [{"compound": "CCc1ccc2cn(C)nc2c1NC(=O)N=S(N)(=O)c1ncc(C(C)(C)O)s1", "note": "(single isomer, unassigned) [Example 330, (R) or (S)-N′-((6-ethyl-2-methyl-2H-indazol-7-yl)-carbamoyl)-5-(2-hydroxy-propan-2-yl)thiazole-2-sulfonimidamide]", "IC50": "> 30"}]}, {"tested_on": "IL-1β production in PMA-differentiated THP-1 cells", "test": "IL-1β production in PMA-differentiated THP-1 cells stimulated with gramicidin (hTHP-1 assay, 2% fetal bovine serum; Procedures 1-3)", "assay_type": "cell-based, human", "settings": "Table B3; hTHP-1 assay containing 2% fetal bovine serum, gramicidin stimulation, IL-1β readout; read-out: hTHP-1 IC50", "method_in_brief": "as §1", "units": {"IC50": "µM"}, "values": [{"compound": "CC(NC1CCC1)c1ccc(S(N)(=O)=NC(=O)Nc2c3c(cc4c2CC4)CCC3)c(F)c1", "note": "(stereo not drawn) [Example 725, 4-(1-(cyclobutylamino)ethyl)-2-fluoro-N′-((2,4,5,6-tetrahydro-1H-cyclobuta[f]inden-3-yl)carbamoyl)benzenesulfonimidamide]", "IC50": "0.2 to 1"}, {"compound": "NS(=O)(=NC(=O)Nc1c2c(cc3c1CCC3)CCC2)c1ccc(C2CCN2)cc1", "note": "(single isomer, unassigned) [Example 864, (R, S) or (S, S)-4-(azetidin-2-yl)-N′-((1,2,3,5,6,7-hexahydro-5-indacen-4-yl)carbamoyl)benzenesulfonimidamide]", "IC50": "5 to 30"}, {"compound": "COC1CCc2csc(S(N)(=O)=NC(=O)Nc3c4c(cc5c3CCC5)CCC4)c2C1", "note": "(single isomer, unassigned) [Example 858, (S, R) or (R, R)-N′-((1,2,3,5,6,7-hexahydro-s-indacen-4-yl)carbamoyl)-6-methoxy-4,5,6,7-tetrahydrobenzo[c]thiophene-1-sulfonimidamide]", "IC50": "5 to 30"}, {"compound": "CC(NC1CCC1)c1ccc(S(N)(=O)=NC(=O)Nc2c3c(cc4c2CC4)CCC3)c(F)c1", "note": "(single isomer, unassigned) [Example 848, (S, R) or (R, R) -4-(1-(cyclobutylamino)ethyl)-2-fluoro-N′-((2,4,5,6-tetrahydro-1H-cyclobula[f]inden-3-yl)carbamoyl)benzenesulfonimidamide]", "IC50": "0.2 to 1"}, {"compound": "CN1CCCC(c2ccc(S(N)(=O)=NC(=O)Nc3c4c(cc5c3CC5)CCC4)c(F)c2)C1", "note": "(single isomer, unassigned) [Example 859, (S, R) or (R, R)-2-fluoro-4-(1-methylpiperidin-3-yl)-N′-((2,4,5,6-tetrahydro-1H-cyclobuta[f]inden-3-yl)carbamoyl)benzenesulfonimidamide]", "IC50": "1 to 5"}, {"compound": "CC(C)(O)c1ccc(S(N)(=O)=NC(=O)Nc2c3c(cc4c2C(=O)CC4)CCC3)cn1", "note": "(single isomer, unassigned) [Example 831, (S) or (R)-6-(2-hydroxypropan-2-yl)-N′-((3-oxo-1,2,3,5,6,7-hexahydro-s-indacen-4-yl)carbamoyl)pyridine-3-sulfonimidamide]", "IC50": "> 30"}, {"compound": "NS(=O)(=NC(=O)Nc1c2c(cc3c1CC3)CCC2)c1cc2c(s1)CCN[C@@H]2C(F)F", "note": "(single isomer, unassigned) [Example 875, (S or R,4S)-4-(difluoromethyl)-N′-((2,4,5,6-tetrahydro-1H-cyclobula[f]inden-3-yl)carbamoyl)-4,5,6,7-tetrahydrothieno[3,2-c]pyridine-2-sulfonimidamide]", "IC50": "1 to 5"}, {"compound": "NS(=O)(=NC(=O)Nc1c2c(cc3c1CC3)CCC2)c1cc2c(s1)CCNC2C(F)F", "note": "(single isomer, unassigned) [Example 783, (R) or (S) -4-(difluoromethyl)-N′-((2,4,5,6-tetrahydro-1H-cyclobuta[f]inden-3-yl)carbamoyl)-4,5,6,7-tetrahydrothieno[3,2-c]pyridine-2-sulfonimidamide]", "IC50": "0.2 to 1"}]}, {"tested_on": "IL-1β production in PMA-differentiated THP-1 cells", "test": "IL-1β production in PMA-differentiated THP-1 cells stimulated with gramicidin (hTHP-1 assay, 2% fetal bovine serum; Procedures 1-3)", "assay_type": "cell-based, human", "settings": "hTHP-1 assay containing 2% fetal bovine serum, Table B2, class symbols; read-out: IC50", "method_in_brief": "as §1", "units": {"IC50": "µM"}, "values": [{"compound": "C=CCc1c2c(c(NC(=O)N=S(N)(=O)c3cc(C(C)(C)O)n(-c4ccccc4)n3)c3c1CCC3)CCC2", "note": "(single isomer, unassigned) [Example 567, (S) or (R)-N′-((8-allyl-1,2,3,5,6,7-hexahydro-s-indacen-4-yl)carbamoyl)-5-(2-hydroxypropan-2-yl)-1-phenyl-1H-pyrazole-3-sulfonimidaimde]", "IC50": "5 to 30"}, {"compound": "(S)- and (R)-3-Fluoro-5-((methylamino)methyl)-N′-((2,4,5,6-tetrahydro-1H-cyclobuta[f]inden-3-yl)carbamoyl)thiophene-2-sulfonimidamide [Example 671]", "IC50": "1 to 5"}, {"compound": "CC(C)(O)c1cc(C#N)cc(S(N)(=O)=NC(=O)Nc2c3c(c(C#N)c4c2CCC4)CCC3)c1", "note": "(single isomer, unassigned) [Example 579, (S) or (R)-3-cyano-N′-((8-cyano-1,2,3,5,6,7-hexahydro-5-indacen-4-yl)carbamoyl)-5-(2-hydroxypropan-2-yl) benzenesulfonimidamide]", "IC50": "5 to 30"}, {"compound": "CC(O)(CO)c1ncc(S(N)(=O)=NC(=O)Nc2c3c(c(C#N)c4c2CCC4)CCC3)s1", "note": "(stereo not drawn) [Example 437, N′-((8-cyano-1,2,3,5,6,7-hexahydro-s-indacen-4-yl)carbamoyl)-2-(1,2-dihydroxypropan-2-yl)thiazole-5-sulfomidamide]", "IC50": "1 to 5"}, {"compound": "CN(C)Cc1ccc(S(N)(=O)=NC(=O)Nc2c3c(cc4c2CCC4)CCC3)cn1", "note": "(single isomer, unassigned) [Example 617, (R) or (S)-6-((dimethylamino)methyl)-N′-((1,2,3,5,6,7-hexahydro-s-indacen-4-yl)carbamoyl) pyridine-3-sulfonimidamide]", "IC50": "0.2 to 1"}]}]}
